The source of these data is patent US4130644A, “7-Acylamine-3-(sulfoalkyl substituted oxadiazolylthiomethyl) cephalosporins and pharmaceutical compositions containing them” (SmithKline Corporation, priority 1977, dated 1978).

Molecules are shown by their SMILES. Converted amounts (≈) assume the structure as drawn.

One assay deals with S. aureus HH 127. In words: in vitro minimum inhibitory concentration (MIC). To be noted: Staphylococcus aureus, HH127; S. aureus HH 127, in vitro. The class given is cell-based. On the procedure:
(§1) The compounds of Formula I have exceptional antibacterial activity against both Gram-positive and Gram-negative organisms. Minimum inhibitory concentrations (MIC's) range from 0.2 to <200 μg./ml. in in vitro testing. Test results for the compound 7-D-mandelamido-3-(5-sulfomethyl-1,3,4-oxadiazol-2-ylthiomethyl)-3-cephem- 4-carboxylic acid are given below: […]

A further assay has as its system Pseudo. aerug. HH 63. The assay is described as follows: in vitro minimum inhibitory concentration (MIC). The conditions noted are these: Pseudo. aerug. HH 63, in vitro. Format: cell-based. On the procedure: as §1
In a further assay the test system is Salmonella ATCC 12176. The assay is described as follows: in vitro minimum inhibitory concentration (MIC). Format: cell-based. To be noted: ATCC12176; Salmonella ATCC 12176, in vitro. On the procedure: as §1
The test system of the next assay is Entero aerog. ATCC 13048. In words: in vitro minimum inhibitory concentration (MIC). The conditions noted are these: Entero aerog. ATCC 13048, in vitro. The class given is cell-based. The method, then:
as §1

Another assay relates to Serrata marc. ATCC 13880. The assay is described as follows: in vitro minimum inhibitory concentration (MIC). The class given is cell-based. To be noted: Serrata marc. ATCC 13880, in vitro. The method, then: as §1
The next assay concerns Entero. cloacae HH 31254. The assay is described as follows: in vitro minimum inhibitory concentration (MIC). The class given is cell-based. The conditions noted are these: Enterobacter cloacae, HH31254; Entero. cloacae HH 31254, in vitro. On the procedure:
as §1

The next assay relates to S. villaluz SK 70390. In words: in vitro minimum inhibitory concentration (MIC). Format: cell-based. The conditions noted are these: S. villaluz SK 70390, in vitro. On the procedure: as §1
Another assay relates to Shigella HH 117. The assay is described as follows: in vitro minimum inhibitory concentration (MIC). The class given is cell-based. To be noted: HH117; Shigella HH 117, in vitro. On the procedure:
as §1

For the next assay, the system named is Kleb. pneumo. SK 4200. In words: in vitro minimum inhibitory concentration (MIC). The class given is cell-based. To be noted: Kleb. pneumo. SK 4200, in vitro. On the procedure: as §1
A further assay relates to S. aureus SK 23390. In words: in vitro minimum inhibitory concentration (MIC). Format: cell-based. The conditions noted are these: Staphylococcus aureus, SK23390; S. aureus SK 23390, in vitro. On the procedure:
as §1

Another assay has as its system E. coli HH 33779. In words: in vitro minimum inhibitory concentration (MIC). The class given is cell-based. To be noted: Escherichia coli, HH33779; E. coli HH 33779, in vitro. The method, then:
as §1

In another assay the test system is Kleb. pneumo. SK 1200. The assay is described as follows: in vitro minimum inhibitory concentration (MIC). The conditions noted are these: Kleb. pneumo. SK 1200, in vitro. Format: cell-based. On the procedure: as §1
A further assay has as its system Proteus morgani 179. In words: in vitro minimum inhibitory concentration (MIC). To be noted: Proteus morgani 179, in vitro. Format: cell-based. The method, then: as §1
The next assay deals with Strep. faecalis HH 34358. The assay is described as follows: in vitro minimum inhibitory concentration (MIC). The class given is cell-based. To be noted: Enterococcus faecalis, HH34358; Strep. faecalis HH 34358, in vitro. The method, then:
as §1

In the next assay the test system is E. coli SK 12140. The assay is described as follows: in vitro minimum inhibitory concentration (MIC). Format: cell-based. To be noted: Escherichia coli, SK12140; E. coli SK 12140, in vitro. The method, then:
as §1

For the next assay, the system named is E. coli 12140. In words: in vivo mouse protection test. To be noted: Escherichia coli, sc, E. coli 12140, subcutaneous injection. The text has this:
(§2) 4200 upon subcutaneous injection.

In another assay the test system is Kleb. pneumo. 4200. In words: in vivo mouse protection test. The conditions noted are these: sc, Kleb. pneumo. 4200, subcutaneous injection.
From the text: as §2

The MIC is the lowest concentration that inhibits growth of the organism. Lower therefore signals greater potency. For orientation: ED50 means the dose that gives a 50% effect, or the effect in half of the subjects. Read a low ED50 as an effect at a small dose. Turning to `O=C(O)C1=C(CSc2nnc(CS(=O)(=O)O)o2)CS[C@@H]2[C@H](NC(=O)[C@H](O)c3ccccc3)C(=O)N12` [7-D-Mandelamido-3-(5-sulfomethyl-1,3,4-oxadiazol-2-ylthiomethyl)-3-cephem-4-carboxylic acid], the MIC is 3.1 µg/mL (≈ 5.71 µM) with S. aureus HH 127; > 200 µg/mL in the assay on Pseudo. aerug. HH 63; 1.6 µg/mL (≈ 2.95 µM) in the assay with Salmonella ATCC 12176; 3.1 µg/mL (≈ 5.71 µM) in the assay on Entero aerog. ATCC 13048; 100 µg/mL (≈ 184 µM) in the assay on Serrata marc. ATCC 13880; 1.6 µg/mL (≈ 2.95 µM) against Entero. cloacae HH 31254. Moreover, the MIC with S. villaluz SK 70390 is 200 µg/mL (≈ 369 µM); with Shigella HH 117, 0.8 µg/mL (≈ 1.47 µM); with Kleb. pneumo. SK 4200 it was 1.6 µg/mL (≈ 2.95 µM); with S. aureus SK 23390, 1.6 µg/mL (≈ 2.95 µM); in the assay on E. coli HH 33779 it was 3.1 µg/mL (≈ 5.71 µM); against Kleb. pneumo. SK 1200, 0.8 µg/mL (≈ 1.47 µM). Besides, the MIC with Proteus morgani 179 came to 25 µg/mL (≈ 46.1 µM); against Strep. faecalis HH 34358, 50 µg/mL (≈ 92.2 µM); in the assay on E. coli SK 12140, 1.6 µg/mL (≈ 2.95 µM). Besides, the ED50 in the assay on E. coli 12140 and with Kleb. pneumo. 4200 was 1.56 mg/kg each time.
